Test results as given in patent US4690935A, “Inhibition of tumor growth and metastasis with calcium channel blocker compounds” (Wayne State University, priority 1983, dated 1987).

Key:
B16a Tumor Cells = experiment: "Experimental" metastasis (lung colonies) induced by tail vein injection of B16a tumor cells; format: in vivo, mouse; conditions: oral, mice; for % of Control (mean number of metastatic lesions on lung surface): 1 h before and 1 h after tumor cells, 21 days, x ± SEM, n = 12, control = 100%; for reduction of lung colonies / tail vein metastasis (in words): tail vein injection of B16a
From the text: B16 amelanotic melanoma (B16a) and Walker 256 L-Pam carcinosarcoma were obtained from the Division of Cancer Treatment, Animal and Human Tumor Bank, Mason Research Institute, Worcester, Mass. Tumors were passaged four times after receipt in syngeneic C57BL/6J male mice (B16a) or allogenic Sprague Dawley rats (Walker 256 L-Pam). Passaging involved subcutaneous implantations of tumor pices (diced to approximately 2×2 MM) into the right auxiliary region using a 18 gauge needle. Mice weighing approximately 20 grams (4 to 5 weeks old) were used to passage the B16a cell line and female rats were used to passage the Walker 256 L-Pam cell line. Animals were housed under identical conditions of temperature, feeding, photoperiod, etc. The transplanted tumors were allowed to grow for approximately 14 days following implantation.
The B16a tumor cells, obtained by the previously described procedure of tumor dispersion and tumor cell elutriation were used to test the antimetastatic effect of BAY e 9736.
A 40 mg portion of BAY e 9736 was dissolved in 1 ml of polyethylene glycol (PEG-400). This stock solution was diluted 1:5, 1:10, 1:50 and 1:1000 with PEG-400. C56BL/6J mice weighing an average of 20 grams were injected orally with 0.1 ml of the diluted BAY e 9736 one hour before and one hour after challenge with tumor cells. One hour after the first oral administration of BAY e 9736, the mice were injected via the tail vein with a 3×10^4 B16a tumor cell suspension in 0.05 ml prepared as described previously. The control and treated mice were kept under identical conditions of temperature, feeding) photoperiod, etc. The mice were sacrificed 21 days after tail vein injection of the tumor cells and the lungs were removed, fixed in Bouin's solution and visible bilateral metastasis counted.

Platelet = experiment: ADP induced platelet aggregation; format: cell-based, human; conditions: for effect on ADP induced platelet aggregation (in words): higher concentrations
Experimental: Blood (45 ml) was drawn from the […] vein of healthy, fasted, aspirin free (at least two weeks) human volunteers into a plastic syringe containing 5 ml of 4.8% dextrose with 50 U/ml heparin buffered by 25 mM HEPES, pH 7.5. An 18 gauge needle was used to prevent hemolysis. The heparinized blood was gently mixed by inverting the syringe five times and then the blood was transfused into two 40 ml plastic centrifuge tubes and centrifuged for 10 min at 163×g. The resulting platelet rich plasma (PRP; the supernatant fraction) was decanted using an adjustable SMI pipette set at 6 ml. Platelet poor plasma (PPP) was prepared by centrifugation of PRP for 10 min at 1086×g. Platelet poor plasma was used to standardize the platelet concentration in PRP to 3×10^8 /ml. Platelet concentrations were determined using a Coulter Model ZBI cell counter.
Platelet aggregation was measured photometrically using a Sienco Model DP-247E dual channel aggregometer and recorded on a Sienco Model B-5000 dual channel recorder. Aliquots of PRP (250 microliters at 3×10^8 platelets/ml) were transferred into aggregometry cuvettes and stirred at a constant speed of 800 RPM at 37° C. Platelet aggregation studies were designed and run as individually controlled samples. BAY e 9736 was dissolved in either PEG-400 or […] (DMSO).
BAY e 9736 in PEG-400 alone was aliquoted into the cuvettes prior to the addition of the PRP. Immediately after the addition of the PRP, the cuvettes were placed into the aggregometer. After two minutes (to allow for the stabilization of the platelet preparation and mixing of the BAY e 9736), ADP or tumor cells were added in 20 microliter aliquots to induce platelet aggregation.
Adenosine diphosphate (ADP) was prepared as a 1 mM solution (in distilled water). A 25 microliter aliquot was added to control and BAY e 9736 treated cuvettes containing PRP. The ADP concentration used induces rapid, monophasic platelet aggregation.

COCCOC(=O)C1=C(C)NC(C)=C(C(=O)OC(C)C)C1c1cccc([N+](=O)[O-])c1 (stereo not drawn) [BAY e 9736, 1,4-dihydro-2,6-dimethyl-4-(3' nitrophenyl)-pyridine-3-(beta-methyoxyethylester)-5-(isopropyl ester)]
% of Control (mean number of metastatic lesions on lung surface) (B16a Tumor Cells; 0.2 mg/kg): 55 ± 5%
% of Control (mean number of metastatic lesions on lung surface) (B16a Tumor Cells; 4.0 mg/kg): 60 ± 7%
% of Control (mean number of metastatic lesions on lung surface) (B16a Tumor Cells; 20.0 mg/kg): 73 ± 13.7%
% of Control (mean number of metastatic lesions on lung surface) (B16a Tumor Cells; 40.0 mg/kg): 74 ± 7.5%
reduction of lung colonies / tail vein metastasis (in words) (B16a Tumor Cells): effective in reducing the number of lung colonies at all levels examined
reduction of lung colonies / tail vein metastasis (in words) (B16a Tumor Cells; listed as nimodipine): reduce metastasis induced by tail vein injection
% Inhibition of ADP Induced Platelet Aggregation (Platelet; 0.0015 mg/ml final, 0.1 mM ADP): No effect
% Inhibition of ADP Induced Platelet Aggregation (Platelet; 0.004 mg/ml final (second line so printed, below 0.0015), 0.1 mM ADP): No effect
% Inhibition of ADP Induced Platelet Aggregation (Platelet; 0.004 mg/ml final, 0.1 mM ADP): No effect
inhibition at 15 µg/mL (Platelet; Homo sapiens, Platelet, 0.015 mg/ml final, 0.1 mM ADP, printed "No effect to 12%"): ≤ 12%
inhibition at 40 µg/mL (Platelet; Homo sapiens, Platelet, 0.04 mg/ml final, 0.1 mM ADP, x ± SEM, n = 3): 31 ± 6.2%
inhibition at 150 µg/mL (Platelet; Homo sapiens, Platelet, 0.15 mg/ml final, 0.1 mM ADP, x ± SEM, n = 3): 58 ± 11%
inhibition at 400 µg/mL (Platelet; Homo sapiens, Platelet, 0.4 mg/ml final, 0.1 mM ADP, x ± SEM, n = 3): 69 ± 7.5%
effect on ADP induced platelet aggregation (in words) (Platelet): able to significantly inhibit this aggregation
effect on ADP induced platelet aggregation (in words) (Platelet; listed as nimodipine): greatly inhibit platelet aggregation induced by tumor cells and ADP
